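Results reflect a 48-hour exposure of cells in 96-well plates to compound at five concentrations. Here, GI50 denotes the concentration required for 50% inhibition of growth.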 Activity calls are given as the source filed them. Cut-off read from the data, not from the text of the source: active = GI50 up to about 1.1 µM and inactive = higher.

Some test systems named below: MOLT-4; RXF 393; RPMI-8226; COLO 205; SF-295; HCT-15; T47D; Hs-578T; M14; HOP-92; SK-OV-3; IGROV-1; EKVX; ACHN; OVCAR-5; NCI-H226; SR; TK-10; A498; MDA-MB-231.
What all share (experiment): NCI tumour cell line growth inhibition, 48 h

On to `Cc1cc(S(=O)(=O)Nc2nc(N)nc(N(C)C)n2)c(SC(C(=O)O)c2ccccc2)cc1Cl` (centres undefined), for which the GI50 in the experiment with MOLT-4 is > 10 µM (inactive); in the experiment on RXF 393 it was > 10 µM (inactive); with RPMI-8226, > 10 µM (inactive); in the experiment on COLO 205 it was > 10 µM (inactive); with SF-295 it was > 10 µM (inactive); in the experiment on HCT-15, over 10 µM. Also, the GI50 in the experiment with T47D, in the experiment on Hs-578T, with M14, in the experiment with HOP-92, in the experiment with SK-OV-3 and in the experiment on IGROV-1 was > 10 µM (inactive) each time. Also, the GI50 in the experiment with EKVX, in the experiment on ACHN, in the experiment on OVCAR-5, in the experiment on NCI-H226, with SR and in the experiment with TK-10 was > 10 µM (inactive) each time. Besides, the GI50 with A498 was > 10 µM (inactive).

As to `N#C/N=C(/NCc1ccccc1)N(Cc1ccccc1)Cc1ccccc1`, the GI50 with MOLT-4 is 14.1 µM (inactive); in the experiment on RXF 393 it was 27.7 µM (inactive); with MDA-MB-231, 18.3 µM (inactive); in the experiment on RPMI-8226, 22.9 µM (inactive); in the experiment with COLO 205 it was > 10 µM (inactive); in the experiment with SF-295, 15.3 µM (inactive). The GI50 is 20.7 µM with HCT-15; 35 µM (inactive) in the experiment with T47D; 23.4 µM (inactive) in the experiment on M14; 24.6 µM (inactive) in the experiment on HOP-92; > 10 µM (inactive) in the experiment with SK-OV-3; 17.4 µM (inactive) in the experiment on IGROV-1. Besides, the GI50 was > 10 µM (inactive) in the experiment with EKVX; > 10 µM (inactive) in the experiment with ACHN; 29.9 µM (inactive) in the experiment with OVCAR-5; 22.4 µM (inactive) in the experiment with NCI-H226; 24.8 µM (inactive) with SR; 24.8 µM (inactive) with TK-10. In the experiment with A498, the GI50 is > 10 µM (inactive).

Turning to `Cc1nc2sccn2c1C(=O)OCCOCCOCCOCCOC(=O)c1c(C)nc2sccn12`, the GI50 in the experiment with MOLT-4 was 18.2 µM (inactive); in the experiment with RXF 393 it was > 100 µM (inactive); with MDA-MB-231 it was > 100 µM (inactive); in the experiment on RPMI-8226, 52.7 µM (inactive); with COLO 205, 86.7 µM (inactive); in the experiment with SF-295 it was 63.4 µM (inactive). Besides, the GI50 is over 100 µM in the experiment on HCT-15; > 100 µM (inactive) in the experiment with Hs-578T; 43.4 µM (inactive) with M14; > 100 µM (inactive) in the experiment with HOP-92; > 100 µM (inactive) in the experiment on IGROV-1; 32.1 µM (inactive) in the experiment on EKVX. For the same compound, the GI50 in the experiment with ACHN is > 100 µM (inactive); with OVCAR-5, > 100 µM (inactive); in the experiment with NCI-H226, 16 µM (inactive); with SR, 45.9 µM (inactive); in the experiment with TK-10, > 100 µM (inactive); in the experiment with A498 it was > 100 µM (inactive).

In the case of `CC(NC(=O)/C(C#N)=C/c1ccc2[nH]ccc2c1)c1ccccc1` (centres undefined), the GI50 with MOLT-4 was 20.8 µM (inactive); with RXF 393 it was 19.3 µM (inactive); with RPMI-8226, 21.6 µM (inactive); in the experiment on COLO 205, 17.1 µM (inactive); with SF-295, 17.1 µM (inactive); in the experiment with HCT-15, 12.5 µM. Moreover, the GI50 was 20.3 µM (inactive) in the experiment on T47D; 31.6 µM (inactive) with Hs-578T; 20.6 µM (inactive) in the experiment on M14; 14.5 µM (inactive) with HOP-92; 21.9 µM (inactive) in the experiment on SK-OV-3; 17.2 µM (inactive) with IGROV-1. The GI50 with EKVX was 22 µM (inactive); in the experiment on ACHN it was 21.6 µM (inactive); in the experiment on OVCAR-5, 17.5 µM (inactive); in the experiment on NCI-H226, 24.1 µM (inactive); with SR, 24.2 µM (inactive); in the experiment with TK-10, 17.9 µM (inactive). In addition, the GI50 with A498 is 16.5 µM (inactive).

On to `O=C1CC(O)c2c(Cl)sc(Cl)c21` (centres undefined), for which the GI50 with MOLT-4 is 2.81 µM (inactive); in the experiment with RXF 393, 3.68 µM (inactive); in the experiment on MDA-MB-231, 27.7 µM (inactive); with RPMI-8226, 7.19 µM (inactive); in the experiment on COLO 205, 5.12 µM (inactive); with SF-295 it was 23.2 µM (inactive). In addition, the GI50 with HCT-15 is 3.39 µM; in the experiment on T47D, 5.89 µM (inactive); in the experiment with M14, 14.2 µM (inactive); in the experiment on HOP-92, 3.11 µM (inactive); in the experiment on SK-OV-3, 22.5 µM (inactive); with IGROV-1, 8.13 µM (inactive). Besides, the GI50 was 18.7 µM (inactive) with EKVX; 12.2 µM (inactive) in the experiment on ACHN; 17 µM (inactive) with OVCAR-5; 15.1 µM (inactive) in the experiment on NCI-H226; 2.71 µM (inactive) in the experiment on SR; 15.9 µM (inactive) in the experiment with TK-10. The GI50 with A498 was 22.1 µM (inactive).

For the compound `CC(=O)O[C@H]1C[C@](C)(O)[C@@]23CC([C@@H](OC(=O)C(C)(C)O)[C@@H](OC(C)=O)C2(COC(=O)c2ccccc2)[C@H]1OC(C)=O)C(C)(C)O3` (some centres undefined), the GI50 is 31.4 µM (inactive) in the experiment on MOLT-4; > 100 µM (inactive) in the experiment on RXF 393; 16.8 µM (inactive) in the experiment with MDA-MB-231; 23.6 µM (inactive) with RPMI-8226; > 100 µM (inactive) with COLO 205; 84.3 µM (inactive) with SF-295. Also, the GI50 with HCT-15 is over 100 µM; with T47D, > 100 µM (inactive); with Hs-578T it was > 100 µM (inactive); in the experiment on M14, 55.5 µM (inactive); with HOP-92, 60.3 µM (inactive); in the experiment on SK-OV-3, > 100 µM (inactive). Moreover, the GI50 with IGROV-1, in the experiment with EKVX, in the experiment on ACHN, with OVCAR-5, in the experiment on TK-10 and with A498 was > 100 µM (inactive) throughout.

For `COc1cc(C2c3cc4c(c(O)c3C(=O)C3CCC(=O)N32)OCO4)cc(OC)c1OC` (centres undefined), the GI50 in the experiment on MOLT-4 is 37.9 µM (inactive); in the experiment with RPMI-8226, 92.7 µM (inactive); in the experiment with COLO 205 it was 5.52 µM (inactive); in the experiment with SF-295 it was 36.6 µM (inactive); in the experiment on HCT-15, 48.8 µM; in the experiment with T47D it was 99.5 µM (inactive). Moreover, the GI50 in the experiment with Hs-578T was 37.7 µM (inactive); in the experiment on M14, 42.1 µM (inactive); in the experiment on HOP-92 it was 34.4 µM (inactive); in the experiment with SK-OV-3, 46 µM (inactive); in the experiment on IGROV-1 it was 61.9 µM (inactive); with EKVX, > 100 µM (inactive). In addition, the GI50 is 75 µM (inactive) in the experiment on ACHN; > 100 µM (inactive) with OVCAR-5; 38.3 µM (inactive) with NCI-H226; 44.8 µM (inactive) in the experiment on SR; 67.5 µM (inactive) in the experiment with TK-10; 39.9 µM (inactive) in the experiment on A498.

In the case of `S=c1sc2ccccc2n1CN1CCN(Cc2ccccc2)CC1`, the GI50 with MOLT-4 was > 100 µM (inactive); in the experiment with RXF 393, > 100 µM (inactive); in the experiment on RPMI-8226 it was > 100 µM (inactive); with COLO 205, > 100 µM (inactive); in the experiment with SF-295, > 100 µM (inactive); in the experiment with HCT-15, over 100 µM. Further, the GI50 with T47D, in the experiment with Hs-578T, in the experiment with M14, in the experiment with HOP-92, in the experiment on SK-OV-3 and in the experiment with IGROV-1 was > 100 µM (inactive) each time. The GI50 with EKVX is > 100 µM (inactive); in the experiment on ACHN, > 100 µM (inactive); with OVCAR-5 it was > 100 µM (inactive); with NCI-H226 it was > 100 µM (inactive); with TK-10 it was > 10 µM (inactive); with A498, > 100 µM (inactive).

As to `[O-][n+]1onc2c1CCC(=N\O)/C2=N/Nc1ccccc1`, the GI50 with MOLT-4, in the experiment on RXF 393, in the experiment with MDA-MB-231, in the experiment on RPMI-8226, in the experiment on COLO 205 and in the experiment with SF-295 was > 100 µM (inactive) each time. Further, the GI50 in the experiment on HCT-15 was over 100 µM; with Hs-578T it was > 100 µM (inactive); with M14, > 100 µM (inactive); with SK-OV-3, > 100 µM (inactive); in the experiment on IGROV-1, > 100 µM (inactive); with EKVX, > 100 µM (inactive). The GI50 with ACHN, in the experiment on OVCAR-5, with NCI-H226, with SR, in the experiment on TK-10 and in the experiment on A498 was > 100 µM (inactive) throughout.

As to `Clc1cccc(/N=C/C=C/Nc2cccc(Cl)c2)c1`, the GI50 with MOLT-4 is 22.2 µM (inactive); in the experiment on RXF 393 it was 20.8 µM (inactive); in the experiment with MDA-MB-231 it was 15.7 µM (inactive); in the experiment on RPMI-8226, 27.2 µM (inactive); in the experiment on COLO 205, 16.3 µM (inactive); with SF-295, 12.1 µM (inactive). Moreover, the GI50 was 17.8 µM with HCT-15; 29.8 µM (inactive) in the experiment on Hs-578T; 42.5 µM (inactive) with HOP-92; 16 µM (inactive) in the experiment on IGROV-1; > 10 µM (inactive) in the experiment with EKVX; > 10 µM (inactive) in the experiment on ACHN. Also, the GI50 is 24.8 µM (inactive) in the experiment on OVCAR-5; > 10 µM (inactive) in the experiment on NCI-H226; 24.2 µM (inactive) in the experiment on SR; 37.8 µM (inactive) in the experiment on TK-10; 22.9 µM (inactive) with A498.

For the compound `CCNC(=S)NNC(=O)c1csc(NC(=S)NC2CCCCC2)n1`, the GI50 is 3.11 µM (inactive) with MOLT-4; 6.53 µM (inactive) in the experiment with MDA-MB-231; 11.7 µM (inactive) with RPMI-8226; 8.53 µM (inactive) in the experiment with COLO 205; 10.2 µM (inactive) with SF-295; 1.67 µM in the experiment with HCT-15. The GI50 with T47D is 11.7 µM (inactive); in the experiment on M14, 11.6 µM (inactive); with SK-OV-3, 21.3 µM (inactive); in the experiment on EKVX, > 100 µM (inactive); in the experiment with ACHN, 7 µM (inactive); in the experiment with OVCAR-5, 26.9 µM (inactive). Besides, the GI50 in the experiment on NCI-H226 was > 100 µM (inactive); with SR it was 3.5 µM (inactive); in the experiment with TK-10 it was 19.1 µM (inactive); with A498, 23 µM (inactive).

(Values after ChEMBL document CHEMBL1201862, “PubChem BioAssay data set” (2004).)
